Assays:
Format in all cases: physicochemical
[1] = Oximetric calibration by X-band ESR (9 GHz), oxygen broadening; settings: plasma, 37° C., X-band 9 GHz
Method: Oximetric calibrations were made for the perdeuterated trityl and the non-deuterated hydroxy trityl in water and plasma at 37° C. with ESR in the X-band at 9 GHz. The experiment was performed on a Varian X-band spectrometer with temperature controller. A thermocouple was placed near the microwave cavity for accurate determination of the temperature. The samples were placed in thin wall teflon capillaries for rapid equilibration with a flowing gas mixture. A Sensormedics Oxygen Analyzer OM-11 was used to determine the oxygen percentage in the flowing gas. The gas pressure for temperature control and oxygenation was maintained at 20 psi. The linewidth and the saturation of the electron spin resonance was measured. Fremys salt was chosen as a B1 calibration standard and a conversion factor of 38.6±0.2 mG/mW was obtained.
The results are shown in FIGS. 2 and 3 which give the linewidth as a function of oxygen concentration. The oxygen broadening of the perdeuterated trityl in plasma at 37° C. is 583 mG/mMo2 .

[2] = Electron spin relaxation rates (radical concentration dependent) from CW ESR spectra and DNP data; settings: water (isotonic saline)
Method: (§1) The following four water soluble, single ESR line trityls were investigated by NMRD, Dynamic Nuclear Polarisation (DNP) and ESR (Examples 1-4).
Electron spin relaxation rates were measured by analysis of CW ESR spectra and DNP data at 23° C. and 37° C. in water, isotonic saline, plasma and blood for the deuterated hydroxy trityl and in water and isotonic saline for the perdeuterated and symmetric trityl.

[3] = Relaxivity from NMRD profiles in water, plasma and blood; settings: water
Method: as §1
(§2) The relaxivity and DNP enhancement data were measured in water, plasma and blood at 23° C. and 37° C. The results are set out in Tables 1 and 2.

[4] = DNP (Overhauser) enhancement and DNP-curve relaxivity at infinite concentration and power; settings: water
Description: The calibration data are generated by determining Overhauser enhancement values for the radical in the selected body fluid, at the selected temperature and at a range of oxygen (and preferably also radical) concentrations. The intrinsic esr relaxation times for the radical can be determined, under the same conditions, using a conventional esr spectrometer equipped with a temperature controller, with oxygen concentration being determined using the method of Ravin et al J. Appl. Physiol. 18:784-790(1964), a method known to produce accurate and reproducible results.
as §1, §2

Bis-(8-sodium carboxylate-2,2,6,6-tetrakis-(^2 H3 methyl)-benzo[1,2-d:4,5-d']-bis(1,3)-dithiole-4-yl)-mono-(8-sodium carboxylate-2,2,6,6-tetrakis-(^2 H3 -methyl)-benzo[1,2-d:4,5-d']-bis(1,3)-dioxole-4-yl) methyl [perdeuterated trityl]
oxygen broadening [1]: 583 mG/mMo2
2(3γe T1e)^-1, concentration dependent relaxation rate (peak-to-peak) ([2]; 23° C.): 10.6 ± 0.8 mg/mM
2(3γe T2e)^-1, concentration dependent relaxation rate (peak-to-peak) ([2]; 23° C.): 24.3 ± 0.8 mg/mM
2(3γe T1e)^-1, concentration dependent relaxation rate (peak-to-peak) ([2]; 37° C.): 12.9 ± 0.3 mg/mM
2(3γe T2e)^-1, concentration dependent relaxation rate (peak-to-peak) ([2]; 37° C.): 28.2 ± 1.2 mg/mM
Relaxivity ([3]; 23° C.): 0.19 mM⁻¹ s⁻¹
Relaxivity ([3]; 37° C.): 0.14 mM⁻¹ s⁻¹
A. (enhancement at infinite concentration and power) [4]: 267

From patent US6256527A, “Method for determining oxygen concentration” (Nycomed Imaging AS, priority 1995, dated 2001)
